Data as given in article PMC2247230, “Synthesis of somatostatin by breast cancer cells and their inhibition by exogenous somatostatin and sandostatin” (British Journal of Cancer, 1989).
Read-outs that look alike come from different tables or passages of the source.

What was measured:
MDA-MB-436 cells = system: MDA-MB-436 cells
From the text: (§1) Somatostatin is a neuroendocrine hormone which inhibits not only exocrine and endocrine secretion, but also mito- genesis. Somatostatin-synthesising cells have a widespread anatomical distribution, being found in regions of the central nervous system and gastrointestinal tract. […] There have been few studies of the presence of SLI in breast cancer specimens. […] Inhibition of tumour growth may be indirect, through inhibition of endocrine secretion. […] Correspondence: J. Nelson. Received 5 October 1988, and in revised form, 9 January 1989. Materials and methods Tissue culture All media and fetal calf serum (FCS) were obtained from Flow Laboratories, Rickmansworth, UK. The same batch of serum was used throughout. […] Cell proliferation assays To assess the effects of somatostatin and Sandostatin, 5 x 10^4 cells were inoculated in 24-well tissue culture plates (Costar, Northumbria Biologicals Ltd, Cramlington, UK)- .After one day, plating efficiency was determined in a repre- sentative set of wells (cell counts, day 0) by trypsinisation and electronic cell counting (Coulter counter model ZBI, Coulter Electronics, Luton, UK). […] Thereafter cells were removed and counted at the times indicated.

[1] = read-out RIA
[2] = rat kidney homogenates, ref Pless et al., 1986, cited from earlier work
From the text: In the presence of fe ...

[3] = system: Antiserum to somatostatin-14; experiment: Somatostatin radioimmunoassay, specificity (displacement of 125I-Tyr11 somatostatin-14); format: binding; conditions: 20 h at 4 C, charcoal/dextran separation; for sensitivity of the RIA to the substance (displacement of label): triplicate
ZR-75-1 cells = experiment: Cell proliferation assay (electronic cell counting), ZR-75-1; format: cell-based, human
From the text: Somatostatin is a neuroendocrine hormone which inhibits not only exocrine and endocrine secretion, but also mito- genesis. Somatostatin-synthesising cells have a widespread anatomical distribution, being found in regions of the central nervous system and gastrointestinal tract. […] There have been few studies of the presence of SLI in breast cancer specimens. […] Inhibition of tumour growth may be indirect, through inhibition of endocrine secretion. […] Correspondence: J. Nelson. Received 5 October 1988, and in revised form, 9 January 1989. Materials and methods Tissue culture All media and fetal calf serum (FCS) were obtained from Flow Laboratories, Rickmansworth, UK. The same batch of serum was used throughout. MCF-7 cells, a gift from Dr C.R. Green, Liverpool University, were routinely cultured in modified Eagle's mini- mal essential medium (MEM) supplemented with non- essential amino acids, sodium pyruvate (1 mM) and 5% v/v FCS. ZR-75-1 and MDA-MB-436 cells were obtained from the American Tissue Culture Collection. ZR-75-1 cells were cultured in RPMI 1640 medium containing 5% FCS. MDA- MB-436 cells were cultured in Liebowitz 15 medium contain- ing 10% FCS. All media contained Phenol Red and were supplemented with penicillin (1OOIUml-1) and streptomycin (100 ug ml- 1). Cell proliferation assays To assess the effects of somatostatin and Sandostatin, 5 x 10^4 cells were inoculated in 24-well tissue culture plates (Costar, Northumbria Biologicals Ltd, Cramlington, UK)- .After one day, plating efficiency was determined in a repre- sentative set of wells (cell counts, day 0) by trypsinisation and electronic cell counting (Coulter counter model ZBI, Coulter Electronics, Luton, UK). At this time medium was removed from remaining wells and replaced with fresh medium (control) or medium containing peptide (treatment) as indicated. Control and treatment media were either unchanged or changed daily during the course of the experi- ments, or control and treatment media were removed after one day exposure (i.e. from day 0 to day 1) and replaced by control medium. Thereafter cells were removed and counted at the times indicated.

MCF-7 cells = experiment: Cell proliferation assay (electronic cell counting), MCF-7; format: cell-based, human; conditions: 500 ng ml-1, 6 days continuous exposure without medium changes, MEM plus 5% FCS (Figure 4); mean of 3-5 wells
From the text: as §1

Molecule: C[C@H](N)C(=O)NCC(=O)N[C@H]1CSSC[C@@H](C(=O)O)NC(=O)[C@H](CO)NC(=O)[C@H]([C@@H](C)O)NC(=O)[C@H](Cc2ccccc2)NC(=O)[C@H]([C@@H](C)O)NC(=O)[C@H](CCCCN)NC(=O)[C@H](Cc2c[nH]c3ccccc23)NC(=O)[C@H](Cc2ccccc2)NC(=O)[C@H](Cc2ccccc2)NC(=O)[C@H](CC(N)=O)NC(=O)[C@H](CCCCN)NC1=O [somatostatin]
- cytotoxic effects in serum-free conditions (MDA-MB-436 cells; serum-free conditions (results not shown)): no cytotoxic effects
- exogenous somatostatin remaining, as measured by RIA ([1]; after two days in 5% FCS with or without cells): undetectable
- exogenous somatostatin remaining, as measured by RIA ([1]; in the presence of 5% FCS alone (no cells), after one day incubation): < 50%
- exogenous somatostatin remaining, as measured by RIA ([1]; in the presence of cells and 5% FCS, RPMI 1640, ZR-75-1 cells, 500 ng ml-1, after one day incubation): < 20%
- remaining of starting levels after degradation ([2]; within 1 h): < 25%

Molecule: EGF
- sensitivity of the RIA to the substance (displacement of label) ([3]; 1,000 fmol per tube): insensitive

Molecule: Sandostatin
- effect of one day exposure followed by return to control medium on cell proliferation (ZR-75-1 cells; 500 ng ml-1, 5% FCS, exposure day 0 to day 1, then control medium (Figures 1c, 2b)): much less effective in inhibiting cell proliferation than a continuous exposure
- inhibition of ZR-75-1 cell proliferation compared with relevant control populations (ZR-75-1 cells; continuous exposure to single or repeated doses of 500 ng ml-1, in the presence of FCS, day 6 (Figures 1a, b and 2a)): > 3 fold
- influence of insulin on the inhibitory effect (ZR-75-1 cells; in the presence of insulin, 5% FCS (results not shown)): not more pronounced in the presence of insulin
- concentration giving consistent inhibition of growth (ZR-75-1 cells; range 10-500 ng ml-1 tested, without medium changes): 500 ng/mL
- lowest concentration at which inhibition was occasionally observed (ZR-75-1 cells; range 10-500 ng ml-1 tested, without medium changes, inhibition at low concentrations variable): 25 ng ml -1
- effect of continuous exposure on growth (final cell numbers) (MDA-MB-436 cells; 500 ng ml-1, 6 days continuous exposure without medium changes, L-15 plus 10% FCS (Figure 4), mean of 3-5 wells): inhibition of growth
- effect of continuous exposure on growth (final cell numbers) (MCF-7 cells): inhibition of growth
- sensitivity of the RIA to the substance (displacement of label) ([3]; 500 fmol per tube): insensitive
- degradation by homogenate ([2]; up to 20h): virtually unaffected

Molecule: bacitracin
- sensitivity of the RIA to the substance (displacement of label) ([3]; 1,000 fmol per tube): insensitive

Molecule: leupeptin
- sensitivity of the RIA to the substance (displacement of label) ([3]; 2,000 fmol per tube): insensitive

Molecule: somatostatin-28
- displacement of label in the RIA ([3]; compared with somatostatin-14): displacement of label was found with somatostatin-28 at higher molarities

B1: prolactin (protein, UniProt P01236 29-227, looked up)
Prolactin: LPICPGGAARCQVTLRDLFDRAVVLSHYIHNLSSEMFSEFDKRYTHGRGFITKAINSCHTSSLATPEDKEQAQQMNQKDFLSLIVSILRSWNEPLYHLVTEVRGMQEAPEAILSKAVEIEEQTKRLLEGMELIVSQVHPETKENEIYPVWSGLPSLQMADEESRLSAYYNLLHCLRRDSHKIDNYLKLLKCRIIHNNNC
notes: substance tested for cross-reaction in the somatostatin RIA
- sensitivity of the RIA to the substance (displacement of label) ([3]; 2,000 fmol per tube): insensitive
